The record followed here is patent US20230025891A1, “COMPOSITION OF NATURAL EXTRACTS HAVING ANTIBACTERIAL OR BACTERIOSTATIC ACTIVITY ALSO FOR GRAM-NEGATIVE BACTERIA” (priority 2019, published 2023).

Data set [1] can be described thus: Observed anti-bacterial efficacy depending on origin and isomer of usnic acid. Conditions: natural versus synthetic dextrorotatory form. An excerpt: Therefore, the solubility of usnic acid in water has always represented, and still represents, a great limit to its use. Furthermore, as regards the efficacy of usnic acid (or of a relative salt thereof) in terms of anti-bacterial activity, the inventors of the present invention observed that it depends both on the (natural or synthetic) origin of usnic acid and on the type of isomer (levorotatory(−) and/or dextrorotatory(+)) used.

Another data set in a line: Solubility. Type of data set: physicochemical. Conditions: qualitative. The protocol: Racemic usnic acid (CAS No. 125-46-2) is the bioactive secondary metabolite of lichens. The large-scale use of said usnic acid has always been limited due to the low solubility in water (0.06 mg/cm^3, at room temperature of 20° C. and 1 atmosphere pressure).
As mentioned above, in such compound (ci) the lipophilic cavity of the cyclodextrins (host) hosts D-usnic acid, or salt thereof, or mixtures thereof (i) (guest), through a reversible non-covalent interaction. As a matter of fact, during the formation of the inclusion compound (ci), no covalent bond is formed, and no covalent bond is broken. The mechanism which—at least primarily—promotes the formation of the inclusion compound is the release of solvent molecules (preferably water molecules), a highly enthalpic exchange reaction, from the cyclodextrin cavity (ii). […] Furthermore, the inclusion compound (ci) renders D-usnic acid (or a salt thereof) compatible in an aqueous solution or an aqueous dispersion or an aqueous suspension. When said aqueous solution or dispersion or suspension, containing said inclusion compound (ci), is applied manually—by spraying or mechanically—to a surface such as that of a wall or floor of a hospital or kindergarten or school room, said acid or a salt thereof contained in said inclusion compound (ci) is capable of being placed, adhering and coating said surface uniformly and homogeneously as if it were a coating paint.
Said D-usnic acid as enantiomer (i), preferably as pure enantiomer, is of natural origin and could be associated, as chemical structure, with that of the corresponding synthesis compound having CAS No. 7562-61-0, i.e. the dextrorotatory enantiomer of said acid. The D-usnic acid as the pure enantiomer of the present invention is soluble in chloroform and ethyl acetate. […] Said D-usnic acid as a pure enantiomer has a melting point comprised from 192° C. to 204° C., a flash point of 223° C. and a boiling point of 605° C. Preferably, said D-usnic acid salt as pure enantiomer is a sodium salt. Said inclusion compound (ci) preferably comprises solid particles of D-usnic acid as pure enantiomer, or salt thereof, or mixtures thereof (i). More preferably, said solid particles have an average particle distribution comprised from 0.01 μm to 50 μm, preferably comprised from 0.1 μm to 30 μm, more preferably comprised from 0.15 μm to 20 μm, even more preferably comprised from 0.2 μm to 15 μm. Said average particle distribution was determined and measured using a laser diffraction method, according to the GB/T 19077-2016 standard, for example with a Malvern Mastersizer 3000 instrument. Said standard is meant in the version valid at the priority date of the present patent application. […]

Turning to `CC(=O)c1c(O)c(C)c(O)c2c1OC1=CC(=O)C(C(C)=O)C(=O)C12C` (single isomer, unassigned; (+)) [D-usnic acid, (+)-Usnic acid 2,6-Diacetyl-7,9-dihydroxy-8,9-dimethyldibenzo[b,d]furan-1,3(2H,9bH)-dione], the “stability, efficacy and activity compared with synthetic origin” value in data set [1] was “more stable, effective and active than the dextrorotatory form (+) of synthetic origin”. Also, in the data set “Solubility”, the solubility in chloroform result is listed as “soluble”, the solubility in ethanol entry is recorded as “moderately soluble”, the “solubility in ethyl acetate” value is “soluble” and the solubility in water entry is given as “insoluble”.
